Patent US8530433B2, “Use of icariside II in manufacture of products for preventing or treating male or female sexual dysfunction” (Bjo-Biomed Ltd, priority 2008, dated 2013)
pEC50: −log10 of the molar value.

What was measured:
[1] = system: Primary human corpus cavernosum smooth muscle cells (CCSMCs); assay: cGMP/cAMP biosynthesis in corpus cavernosum smooth muscle cells; format: cell-based; conditions: 4 hours; for effect on the cAMP concentration: P>0.05
Experimental: Primary human corpus cavernosum smooth muscle cells ([…]) were provided by the Andrology Center of Peking University. The […] of the third passage were cultured in six plates for two days. Then the cells were treated with icariside II or the sildenafil at the concentration of 0, 10^-9, 10^-8, 10^-7, 10^-6, 10^-5, M for 4 hours; or treated with icariside II or the sildenafil at the concentration of 0, 10^-9, 10^-8, 10^-7, 10^-6, 10^-5, 10^-4 M for 4 hours followed by a treatment with 10^-5 M of SNP for 30 min. The control group was cultured with DMEM only. Then to each well was added 0.4 mL 0.1 M HCl and incubated at room temperature for 20 minutes. Then the lysed cells are harvested. The cell suspension was collected in centrifuge tubes and centrifuged at 1000 g for 10 minutes; 60 μl cell suspension was taken for protein concentration assay with the BCA protein kit, and 100 μl cell suspension was taken for cGMP or cAMP concentration test. The concentration of cGMP [pmol/(mg prot·min)]=[cGMP or cAMP concentration×supernatant volume]÷reaction time×protein concentration in each well×supernatant volume].

[2] = system: Human corpus cavernosum smooth muscle cells; assay: RT-PCR mRNA expression of NOS isoforms and PDE5a in corpus cavernosum smooth muscle cells; format: cell-based; conditions: 12.5 μM; 1 day and 2 days treatment
Experimental: Human corpus cavernosum smooth muscle cells were grown in 60 mm Petri dishes. […] Then the treated CCSMCs were lysed with Trizol and total RNA was extracted and reverse transcribed into cDNA. PCR amplification was carried out using eNOS, iNOS, nNOS and PDE5a specific primers and the specific PCR products represent the mRNA levels.

PAE-EGFR cells = assay: NOS enzyme activity in EGFR expressing PAE-EGFR cells, NOS kit; format: cell-based, porcine; conditions: for NOS enzyme activity: PAE-EGFR cells
Experimental: (§1) Porcine vascular endothelial cells (PAE) were provided by the Institute of Urology, Peking University. The determination of the effect of icariside II on NOS activity in the endothelial cell is conducted using NOS kit (Cayman Chemical company, Ann Arbor, Mich., USA). Vascular endothelial cells (PAE) were treated with different concentrations of icariside II (0, 10^−9, 10^−8, 10^−7, 10^−6, 10^−5 and 10^−4 M) (sildenafil as the control group). 180 μl lysate was added into each culture well. 20 μl supernatant was used for protein concentration assay with BCA protein kit. And, 100 μl supernatant was analyzed for NOS activity with NOS kit (Cayman Chemical company, Ann Arbor, Mich., USA). NOS activity (units/mg)=[(valueNos-measure−valueNOS-blank)÷(38.3×10^6)]×[(2.15+supernatant volume)÷(15×supernatant volume)]÷[protein concentration of each Petri dish]. 1) The EGFR gene was subcloned into pGFP plasmid to construct pGFP-EGFR expression vector. With Liposome transfection reagent (Qigen), pGFP-EGFR was transfected into PAE cells. After the selection with 1800 μg/ml of G418, a single cell clone was selected. Western blot confirms the stable expression of EGFR in the PAE-EGFR cells.

[3] = system: Corpus cavernosum smooth muscle cells; assay: Western blot protein expression of NOS isoforms, PDE5, PKG and sGC in corpus cavernosum smooth muscle cells; format: cell-based, human; conditions: 12.5 μM; 1 and 2 days
Experimental: Corpus cavernosum smooth muscle cells were grown in 60 mm Petri dishes. […] Then the treated CCSMCs were lysed with RIPA buffer and subjected to 8% SDS-PAGE electrophosis. Expression of eNOS and other proteins were detected by Western blot. After exposing with super ECL luminescence substrate, the band was analyzed with a Optical density scanner. The resulted results were analyzed by normalizing to β-actin.

[4] = system: Primary human corpus cavernosum smooth muscle cells (CCSMCs); assay: NOS activity in corpus cavernosum smooth muscle cells; format: cell-based
Experimental: Primary human corpus cavernosum smooth muscle cells ([…]) were provided by the Andrology Center of Peking University. The […] of the third passage were cultured in six well plates for two days. Then the cells were treated with icariside II or the sildenafil at a concentration of 0, 10^-9, 10^-8, 10^-7, 10^-6, 10^-5 M; or treated with icariside II (0, 10^-9, 10^-8, 10^-7, 10^-6, 10^-5 M) in the presence or absence of LNNA (4×10^-4 M). The control group was cultured with DMEM only. After 24 hours, the cells were washed three times and 180 μl lysis buffer was added into each well; 60 μl cell suspension was taken for protein concentration assay with BCA protein kit; 100 μl cell suspension was taken for NOS activity test. NOS activity (units/mg protein)=[(valueNOS-measure-valueNOS-blank)÷(38.3×10^6)]×[(2.15+supernatant volume)÷(15×S supernatant volume)]÷[protein concentration in each well].

[5] = system: Porcine vascular endothelial cells (PAE); assay: NOS enzyme activity in vascular endothelial cells (PAE), NOS kit; format: cell-based; conditions: for NOS enzyme activity: PAE cells
Experimental: as §1, with “dish].” for “dish]. 1) The EGFR gene was subcloned into pGFP plasmid to construct pGFP-EGFR expression vector. With Liposome transfection reagent (Qigen), pGFP-EGFR was transfected into PAE cells. After the selection with 1800 μg/ml of G418, a single cell clone was selected. Western blot confirms the stable expression of EGFR in the PAE-EGFR cells.”

[6] = 10^−8 M, listed as icariside II

Compound: CCCc1nn(C)c2c(=O)[nH]c(-c3cc(S(=O)(=O)N4CCN(C)CC4)ccc3OCC)nc12 [Sildenafil, sildenafil, reference compound]
- effect on the cAMP concentration [1]: no significant effect
- PDE5a mRNA level [2]: significantly reduced
- eNOS mRNA level [2]: not significantly changed
- iNOS mRNA level [2]: slightly increased after 2 days treatment
- nNOS mRNA level [2]: not significantly changed
- NOS enzyme activity (PAE-EGFR cells; 10^−5 M): 8.99 ± 0.87 u/mg
- NOS enzyme activity (PAE-EGFR cells; 10^−6 M): 8.4 ± 0.84 u/mg
- NOS enzyme activity (PAE-EGFR cells; 10^−7 M): 8.53 ± 0.84 u/mg
- NOS enzyme activity (PAE-EGFR cells; 10^−8 M): 8.37 ± 0.82 u/mg
- NOS enzyme activity (PAE-EGFR cells; 10^−9 M): 8.48 ± 0.85 u/mg
- PDE5a protein expression [3]: decrease
- PKG protein expression [3]: increase
- eNOS protein expression [3]: no effect
- iNOS protein expression [3]: no effect
- nNOS protein expression [3]: no effect
- sGC protein expression [3]: no effect
- effect on NOS activity in CCSMCs ([4]; 10^−9 to 10^−5 M, 24 hours): no significant difference
- NOS enzyme activity ([5]; 10^−5 M): 6.66 ± 0.65 u/mg
- NOS enzyme activity ([5]; 10^−6 M): 5.99 ± 0.58 u/mg
- NOS enzyme activity ([5]; 10^−7 M): 6.32 ± 0.63 u/mg
- NOS enzyme activity ([5]; 10^−8 M): 5.85 ± 0.579 u/mg
- NOS enzyme activity ([5]; 10^−9 M): 5.76 ± 0.56 u/mg
- effect on NOS activity in endothelial cells ([5]; endothelial cells (PAE, PAE-EGFR), p>0.05): no significant effect

Compound: icariside II
- effect on the cAMP concentration [1]: no significant effect
- pEC50 ([1]; in presence of 10^−5 M SNP, read-out: EC50 of cGMP concentration increase): 5.99
- PDE5a mRNA level [2]: significantly decreased
- eNOS mRNA level [2]: not changed
- iNOS mRNA level [2]: slightly increased
- nNOS mRNA level [2]: significantly increased
- NOS activity in PAE-EGFR cells higher than the activity in PAE cells (PAE-EGFR cells; 10^−8 M): 4.66 u/mg
- NOS enzyme activity (PAE-EGFR cells; 10^−5 M): 22.74 ± 2.27 u/mg
- NOS enzyme activity (PAE-EGFR cells; 10^−6 M): 23.91 ± 2.36 u/mg
- NOS enzyme activity (PAE-EGFR cells; 10^−7 M): 22.79 ± 2.45 u/mg
- NOS enzyme activity (PAE-EGFR cells; 10^−8 M): 15.37 ± 1.51 u/mg
- NOS enzyme activity (PAE-EGFR cells; [6]): 15.37±1.49 u/mg
- NOS enzyme activity (PAE-EGFR cells; 10^−9 M): 11.72 ± 1.21 u/mg
- PDE5a protein expression [3]: significantly decreased
- PKG protein expression [3]: significantly increased
- eNOS protein expression [3]: increased at 2 days
- iNOS protein expression [3]: slightly increased
- nNOS protein expression [3]: significantly increased
- sGC protein expression [3]: significantly increased
- NOS activity (peak) ([4]; 10^−6 M, 24 hours, untreated 0.46 units/mg): 4.19 units/mg
- NOS activity ([4]; 10^−8 M, 24 hours, untreated 0.46 units/mg): 1.59 units/mg
- peak value of NOS activity in presence of LNNA ([4]; with LNNA 4×10^−4 M): 2.67 unit/mg
- NOS enzyme activity ([5]; 10^−5 M): 18.66 ± 1.79 u/mg
- NOS enzyme activity ([5]; 10^−6 M): 19.1 ± 1.9 u/mg
- NOS enzyme activity ([5]; 10^−6 M, listed as icariside II): 19.1±1.891 u/mg
- NOS enzyme activity ([5]; 10^−7 M): 16.46 ± 1.63 u/mg
- NOS enzyme activity ([5]; 10^−8 M): 10.71 ± 0.98 u/mg
- NOS enzyme activity [5, 6]: 10.71±1.09 u/mg
- NOS enzyme activity ([5]; 10^−9 M): 8.65 ± 0.87 u/mg
